From US10526580B2, “Differentiated cell population of endothelial cells derived from human pluripotent stem cells, composition, system, kit and uses thereof” (BIOCANT-ASSOCIAÇÃO DE TRANSFERÊNCIA DE TECNOLOGIA, priority 2012, dated 2020)

Key:
HUAECs = test: Vascular toxicity of terbinafine in static or flow culture (qRT-PCR, ELISA); type: cell-based, human
Protocol: (§1) Fluidic shear stress experiments. HESC-derived ECs (2.6×10^6 cells/mL), HUAECs, HUVECs were seeded on flow chamber untreated-slides (μ-slide 0.4, luer, IBIDI) and grown until confluence. Using a programmed IBIDI pump with positive pressure, the cell monolayer was perfused with EGM-2 medium for 7 days, at flow rate of 15.1 mL/min (corresponding to shear stress of 20 dyne/cm2), or 3.02 mL/min (corresponding to shear stress of 4 dyne/cm2). After 7 days the flow was stopped, the cells imaged, and then stained or collected for posterior gene analysis. Medium was collected for ELISA assays. In some experiments, cells were cultured in medium supplemented with terbinafine (0.1 μM or 1 μM) (Sigma) for a maximum of 24 h, under shear stress. Static controls were performed in the chamber coated-slides but without flow. The IBIDI slides allow a laminar perfusion in rectangular flow geometry.
(§2) Evaluation of the levels of vascular injury by specific markers. ELISA kits analyzed supernatants collected from the shear stress experiments for vWF and vWFpp (Gen-Probe GTI Diagnostic) and ADMA (Enzo Life Sciences), according to manufacturer's recommendations.
Terbinafine is an antifungal agent (inhibitor of ergosterol synthesis) that inhibits angiogenesis by suppressing endothelial cell proliferation, inhibits DNA synthesis and activates EC apoptosis^34, 35. Terbinafine is cytotoxic for HUVECs for concentrations above 120 μM^35. To determine whether the hESC-derived ECs cultured under flow conditions could be used to assess vascular toxicity, cells were cultured for 7 days at 20 dyne/cm2 after which the culture medium was supplemented or not with terbinafine (0.1 and 1 μM) and cells cultured under the same flow conditions for one more day. […] Next, was assessed by qRT-PCR the expression of genes involved in inflammation (ICAM-1; E-selectin), oxidative stress sensing (HO-1) and vasculature modulation (eNOS) in hESC-derived cells and control HUAEC after exposition to terbinafine (FIG. 3B). As expected, the expression of these genes increases under fluidic shear stress^36. […] Upregulation of some genes (HO-1 and E-selectin) was only observed for concentrations of 1 μM in HUAECs. […] ADMA is a naturally occurring amino acid that circulates in plasma and is generated by degradation of methylated proteins. Increase levels of ADMA inhibits nitric oxide (NO) production by competitive inhibition of the physiological substrate L-arginine^38. […]
Next, the vascular damage/injury induced by terbinafine was assessed in hESC-derived ECs and control HUAECs, in the same conditions as before, by measuring the levels of ADMA and the ratio von Willebrand factor pro-peptide (vWFpp): von Willebrand factor (vWF) secreted by these cells (FIG. 3C). […]

HUVECs = conditions: cited from earlier work
hESC-derived ECs = test: Vascular toxicity of terbinafine in static or flow culture (morphology, qRT-PCR, ELISA); type: cell-based, human
Protocol: as §1, §2
Terbinafine is an antifungal agent (inhibitor of ergosterol synthesis) that inhibits angiogenesis by suppressing endothelial cell proliferation, inhibits DNA synthesis and activates EC apoptosis^34, 35. Terbinafine is cytotoxic for HUVECs for concentrations above 120 μM^35. To determine whether the hESC-derived ECs cultured under flow conditions could be used to assess vascular toxicity, cells were cultured for 7 days at 20 dyne/cm2 after which the culture medium was supplemented or not with terbinafine (0.1 and 1 μM) and cells cultured under the same flow conditions for one more day. […] Next, was assessed by qRT-PCR the expression of genes involved in inflammation (ICAM-1; E-selectin), oxidative stress sensing (HO-1) and vasculature modulation (eNOS) in hESC-derived cells and control HUAEC after exposition to terbinafine (FIG. 3B). As expected, the expression of these genes increases under fluidic shear stress^36. […] Upregulation of some genes (HO-1 and E-selectin) was only observed for concentrations of 1 μM in HUAECs. […] ADMA is a naturally occurring amino acid that circulates in plasma and is generated by degradation of methylated proteins. Increase levels of ADMA inhibits nitric oxide (NO) production by competitive inhibition of the physiological substrate L-arginine^38. Drugs that inhibit NO pathway, upregulate caveolin-1 expression and/or enhance ADMA levels could potentially be associated with drug-induced endothelial dysfunction. Therefore, increased circulating levels of ADMA may serve as predictive marker of EC dysfunction^38. […] Such effect was not observed for HUAECs cultured under the same conditions. […] In addition, hESC-derived ECs are more sensitive to the effect of terbinafine than HUAECs.
Next, the vascular damage/injury induced by terbinafine was assessed in hESC-derived ECs and control HUAECs, in the same conditions as before, by measuring the levels of ADMA and the ratio von Willebrand factor pro-peptide (vWFpp): von Willebrand factor (vWF) secreted by these cells (FIG. 3C). The last 2 proteins with different biological activity are released in equimolar concentrations in plasma and an increased level of both proteins predicts EC activation/injury. […] Remarkably, hESC-derived ECs cultured under flow conditions in the presence of terbinafine secrete higher levels of ADMA and vWFpp:vWF than without the drug. Again, the sensitivity of HUAECs to terbinafine was lower than hESC-derived ECs. The concentration of ADMA secreted by hESC-derived cells at 24 h is 3.5 times higher than in basal conditions. Importantly, this shift in concentration is observed in human patients with cardiovascular diseases. Healthy persons have an average of 0.45±0.19 μmol of ADMA per liter of blood and this value increases 2.2 or 2.7 folds when the patient has idiopathic pulmonary arterial hypertension^37. […]

CD31+ cells = test: Shh and Notch signaling modulators, arterial and venous marker expression in CD31+ cells; type: cell-based, human; conditions: for expression of arterial marker EphB2: cyclopamine 5 μM and Notch inhibitor L685458 1 μM together; for expression of arterial EC markers EphB2 (protein level), HEY-2, JAG-1 and EFNB1 (gene level) / expression of venous EC markers Lefty-1 and Lefty-2: purmorphamine 1 μM and DLL4 100 ng/mL together, versus cells without activators
Protocol: hESC culture and differentiation. Undifferentiated hESCs (passages 33-36; H9, WiCell, Wisconsin) or hiPSCs K2 (passages 32-35; cord blood derived iPSCs kindly donated by Ulrich Martin) were grown on an inactivated mouse embryonic fibroblast (MEF) feeder layer, as previously described 1, 2. To induce the formation of EBs, the undifferentiated hESCs were treated with 2 mg/mL type IV collagenase (Invitrogen) for 2 h and then transferred (2:1) to low attachment plates (Corning) containing 10 mL of differentiation medium [80% KO-DMEM, 20% fetal bovine serum (FBS, Invitrogen), 0.5% L-glutamine, 0.2% β-mercaptoethanol, 1% nonessential amino acids]. The differentiation medium was supplemented with VEGF165 (50 ng/mL, Prepotech), Tβ4 (100 ng/mL, Caslo) and SB431542 (10 μM, Tocris) according to the following timeline: [(VEGF165)days0-18+(Tβ4)days4-18+(SB431542)days7-18]. After 4 days in suspension, EBs were plated onto 1% gelatin-coated dishes and grown for 14 additional days. Medium was changed every 2-3 days. To evaluate the contribution of Shh and Notch signaling pathways, the differentiation medium was supplemented with one or two of the following agents: 1 μM purmorphamine (Shh activator; Cayman Chemical), 5 μM cyclopamine (Shh inhibitor; Sigma), 100 ng/ml DLL-4 (Notch activator; Prepotech), or 1 μM Y^−-secretase inhibitor L685458 (Notch inhibitor; Tocris Biosciences) 47.
Arterial and venous gene expression was analyzed in CD31^+ cells at the time of their isolation. […] Because arterial/vein specification during mouse embryogenesis is in large part mediated by Notch and Sonic Hedgehog (Shh), the expression of Notch (Notch1, Notch2, Notch3, Notch4) and Shh (patched 1) receptors as well as Notch (DLL1, DLL3, DLL4, JAG-1, JAG-2) and Shh transcription factors (GLI1 and SMO) in CD31^+ cells was assessed (FIG. 1E). […] Was also studied the involvement of Notch and Shh signaling pathways in the gene expression of arterial and venous markers in cells after CD31^+ cell isolation. The independent activation of each signaling pathway has little impact in the expression of arterial marker EphB2 (FIG. 1F).

[1] = flow conditions, medium supplemented with terbinafine

With `CN(C/C=C/C#CC(C)(C)C)Cc1cccc2ccccc12` [terbinafine] the “concentration at which upregulation of some genes (HO-1 and E-selectin) was observed” value (HUAECs; flow 20 dyne/cm2, 24 h) was 1000 nM, the “secretion of vWFpp:vWF” value (HUAECs; flow conditions, exposed to terbinafine, ELISA) was “higher levels” and the “decrease in the expression of DDAH1 and DDAH2” value (HUAECs; [1]) was “not observed”. For the same compound, the “secretion of ADMA or vWFpp:vWF versus control conditions” value (HUAECs; static conditions, ELISA) was “no significant higher secretion”, the “concentrations cytotoxic for HUVECs” value (HUVECs) was “above 120 μM” and the “changes in EC morphology and cadherin expression” value (hESC-derived ECs; flow 20 dyne/cm2, terbinafine 0.1 and 1 μM, day 8) was “No significant changes”. For the same compound, the “secretion of ADMA and vWFpp:vWF versus without the drug” value (hESC-derived ECs; flow conditions, ELISA) was “higher levels”, the “concentration of ADMA secreted, relative to basal conditions” value (hESC-derived ECs; flow conditions, at 24 h, ELISA) was 3.5 times and the “expression of DDAH1 and DDAH2” value (hESC-derived ECs; [1]) was “significant decrease”. For the same compound, the “secretion of ADMA or vWFpp:vWF versus control conditions” value (hESC-derived ECs; static conditions, ELISA) was “no significant higher secretion” and the “expression of ICAM-1, E-selectin, HO-1 and eNOS genes (qRT-PCR)” value (hESC-derived ECs; terbinafine at 0.1 μM, flow 20 dyne/cm2, 24 h) was “higher”.

With `CC(C)C[C@H](NC(=O)[C@H](Cc1ccccc1)C[C@@H](O)[C@H](Cc1ccccc1)NC(=O)OC(C)(C)C)C(=O)N[C@@H](Cc1ccccc1)C(N)=O` [L685458] the “expression of arterial marker EphB2” value (CD31+ cells) was “significantly decreased”.

With `c1ccc2c(Oc3nc(Nc4ccc(N5CCOCC5)cc4)c4ncn(C5CCCCC5)c4n3)cccc2c1` [purmorphamine] the “expression of arterial EC markers EphB2 (protein level), HEY-2, JAG-1 and EFNB1 (gene level)” value (CD31+ cells) was “significantly increased” and the “expression of venous EC markers Lefty-1 and Lefty-2” value (CD31+ cells) was “decreased”.

With DLL4: Notch activator the “expression of arterial EC markers EphB2 (protein level), HEY-2, JAG-1 and EFNB1 (gene level)” value (CD31+ cells) was “significantly increased” and the “expression of venous EC markers Lefty-1 and Lefty-2” value (CD31+ cells) was “decreased”.

For `CC1=C2C[C@H]3[C@@H](CC=C4C[C@@H](O)CC[C@@]43C)[C@@H]2CC[C@]12O[C@@H]1C[C@H](C)CN[C@H]1[C@H]2C` [cyclopamine], the “expression of arterial marker EphB2” value (CD31+ cells) was “significantly decreased”.
